Assays:
Acetylcholinesterase [1] = biological target: Acetylcholinesterase (Electrophorus electricus, UniProt O42275)
Description: Inhibition of Electrophorus electricus AChE

Acetylcholinesterase [2] = biological target: Acetylcholinesterase (Homo sapiens, UniProt P22303)
Description: Inhibition of human erythrocyte AChE

Cholinesterase = Cholinesterase (Homo sapiens, UniProt P06276)
Description: Inhibition of human serum BuChE

cells = settings: Homo sapiens, SH-SY5Y
Description: Antagonist activity at calcium channel expressed in SH-SY5Y cells assessed as blockade of potassium-induced calcium influx increase at 0.3 uM relative to control

SH-SY5Y = assay: cells; settings: Homo sapiens, read-out: Activity
Description: Viability of SH-SY5Y cells measured as neuroprotection activity in presence of H2O2 at 0.3 uM relative to control

Cholinesterase, sequence (P06276 whole entry): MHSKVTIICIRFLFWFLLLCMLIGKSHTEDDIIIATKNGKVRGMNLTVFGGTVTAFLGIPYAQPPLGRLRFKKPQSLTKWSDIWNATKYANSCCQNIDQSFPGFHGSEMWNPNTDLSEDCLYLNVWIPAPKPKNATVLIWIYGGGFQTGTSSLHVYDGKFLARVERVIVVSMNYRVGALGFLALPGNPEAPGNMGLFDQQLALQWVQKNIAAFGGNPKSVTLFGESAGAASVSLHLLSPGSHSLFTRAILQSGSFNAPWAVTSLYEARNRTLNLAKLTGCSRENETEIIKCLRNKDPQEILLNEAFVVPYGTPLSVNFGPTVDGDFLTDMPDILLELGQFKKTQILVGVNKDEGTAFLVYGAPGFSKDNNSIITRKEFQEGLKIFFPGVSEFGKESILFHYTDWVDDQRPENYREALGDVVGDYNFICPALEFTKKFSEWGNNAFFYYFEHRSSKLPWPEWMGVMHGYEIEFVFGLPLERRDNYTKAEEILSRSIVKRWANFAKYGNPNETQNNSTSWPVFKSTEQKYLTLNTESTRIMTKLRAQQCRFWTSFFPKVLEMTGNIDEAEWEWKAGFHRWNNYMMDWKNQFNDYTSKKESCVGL
Acetylcholinesterase (Electrophorus electricus, UniProt O42275), sequence (O42275 whole entry): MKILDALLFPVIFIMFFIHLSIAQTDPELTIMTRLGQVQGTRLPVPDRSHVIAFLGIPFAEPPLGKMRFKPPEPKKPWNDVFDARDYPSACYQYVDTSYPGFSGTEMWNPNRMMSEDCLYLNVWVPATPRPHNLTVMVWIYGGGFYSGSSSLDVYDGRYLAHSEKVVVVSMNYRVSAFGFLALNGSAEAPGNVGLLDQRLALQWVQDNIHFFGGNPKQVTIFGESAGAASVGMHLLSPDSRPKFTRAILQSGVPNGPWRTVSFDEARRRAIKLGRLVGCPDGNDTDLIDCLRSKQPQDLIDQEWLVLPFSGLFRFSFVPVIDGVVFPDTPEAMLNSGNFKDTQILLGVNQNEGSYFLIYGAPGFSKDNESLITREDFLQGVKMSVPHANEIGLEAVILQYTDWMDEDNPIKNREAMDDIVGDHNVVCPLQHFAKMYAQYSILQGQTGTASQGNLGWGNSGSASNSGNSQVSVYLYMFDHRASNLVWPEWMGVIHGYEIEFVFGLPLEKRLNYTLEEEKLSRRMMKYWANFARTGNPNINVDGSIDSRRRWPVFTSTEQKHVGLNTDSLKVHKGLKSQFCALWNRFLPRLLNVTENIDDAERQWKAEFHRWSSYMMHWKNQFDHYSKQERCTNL
Acetylcholinesterase (Homo sapiens, UniProt P22303), sequence (P22303 whole entry): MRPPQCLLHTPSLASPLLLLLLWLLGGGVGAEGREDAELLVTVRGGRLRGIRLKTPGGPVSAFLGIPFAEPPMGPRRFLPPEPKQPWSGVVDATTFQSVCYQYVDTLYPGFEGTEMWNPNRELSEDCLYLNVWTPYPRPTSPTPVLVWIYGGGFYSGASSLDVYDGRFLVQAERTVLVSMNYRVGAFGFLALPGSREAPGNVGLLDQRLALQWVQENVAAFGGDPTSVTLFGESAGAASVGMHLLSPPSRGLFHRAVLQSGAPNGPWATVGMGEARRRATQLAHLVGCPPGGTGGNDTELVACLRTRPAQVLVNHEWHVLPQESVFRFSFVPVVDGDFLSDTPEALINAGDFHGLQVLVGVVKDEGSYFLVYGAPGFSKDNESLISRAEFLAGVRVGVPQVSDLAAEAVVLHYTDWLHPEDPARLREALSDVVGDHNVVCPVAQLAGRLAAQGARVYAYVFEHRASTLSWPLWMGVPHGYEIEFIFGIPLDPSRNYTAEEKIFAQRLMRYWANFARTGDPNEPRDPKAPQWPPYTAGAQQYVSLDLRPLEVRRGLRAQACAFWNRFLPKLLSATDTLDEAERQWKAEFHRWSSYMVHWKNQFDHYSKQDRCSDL

| Compound | IC50 (Acetylcholinesterase [1]) [nM] | IC50 (Acetylcholinesterase [2]) [nM] | IC50 (Cholinesterase) [nM] | inhibition at 0.3 µM (cells) [%] | viability at 0.3 µM (SH-SY5Y) [%] |
| --- | --- | --- | --- | --- | --- |
| CCOC(=O)C1=C(C)Nc2nc3c(c(N)c2C1c1ccccc1)CCCC3 (stereo not drawn) | 80 | 122 | > 100000 | 36.6 | 30.6 |
| CCOC(=O)C1=C(C)Nc2nc3c(c(N)c2C1c1cccc(OC)c1)CCCC3 (stereo not drawn) |  |  |  | 31 |  |
| CCOC(=O)C1=C(C)Nc2nc3c(c(N)c2C1c1ccc(F)cc1)CCCC3 (stereo not drawn) |  |  |  | 22.2 |  |
| CCOC(=O)C1=C(C)Nc2nc3c(c(N)c2C1c1ccccc1[N+](=O)[O-])CCCC3 (stereo not drawn) |  |  |  | 32.6 |  |
| CCOC(=O)C1=C(C)Nc2nc3c(c(N)c2C1c1ccc([N+](=O)[O-])cc1)CCCC3 (stereo not drawn) | 600 | 309 | 34400 | 66.7 | 35.5 |
| CCOC(=O)C1=C(C)Nc2nc3c(c(N)c2C1c1ccc(C)cc1)CCCC3 (stereo not drawn) | 91 | 169 | > 100000 | 29.8 | 53.7 |
| CCOC(=O)C1=C(C)Nc2nc3c(c(N)c2C1c1cccc([N+](=O)[O-])c1)CCCC3 (stereo not drawn) |  |  |  | 33.6 |  |
| CCOC(=O)C1=C(C)Nc2nc3c(c(N)c2C1c1ccc(OC)cc1)CCCC3 (stereo not drawn) |  |  |  | 32.8 |  |
| CCOC(=O)C1=C(C)Nc2nc3c(c(N)c2C1c1ccccc1OC)CCCC3 (stereo not drawn) |  |  |  | 46.5 |  |
| COCCOC(=O)C1=C(C)NC(C)=C(C(=O)OC(C)C)C1c1cccc([N+](=O)[O-])c1 (stereo not drawn) [NIMODIPINE] |  |  |  | 45.5 | 36 |

Reference: ChEMBL document CHEMBL1138213, “Novel multipotent tacrine-dihydropyridine hybrids with improved acetylcholinesterase inhibitory and neuroprotective activities as potential drugs for the treatment of Alzheimer's disease” (J Med Chem, 2006)
